Source: patent US20230270721A1, “INHIBITION OF BAX-MEDIATED CELL DEATH BY ELTROMBOPAG” (Albert Einstein College of Medicine, priority 2020, published 2023)

Molecular target: T1, BAX-4C R134E R145E (Homo sapiens, UniProt Q07812, C126S/C62S/R134E/R145E/S4C)
T1 construct: Human full-length (1-192) wild-type BAX (Q07812); made in house; host or cells: E. coli BL21 (DE3) CodonPlus (DE3)-RIPL
Test: Microscale thermophoresis (MST) direct binding, double mutant
Conditions: double mutant versus wild type BAX-4C
Procedure: Recombinant BAX C62S-C126S-S5C (4C), previously established for evaluating BAX (Garner, T.P., et al. Nat Chem Biol 15, 322-330 (2019)) binding compounds with MST, or BAX C62S-C126S-S5C-R134E-R145E (R134E-R145E-4C) was labeled at cysteine using the Monolith Protein Labeling Kit Red Maleimide (NanoTemper Technologies) according to the instructions of the manufacturer (Garner, T.P., et al. Nat Chem Biol 15, 322-330 (2019)). Briefly, 10 µM protein was incubated with 0.9 equivalents of dye in MST buffer (100 mM potassium phosphate, pH 7.4, 150 mM NaCI) in the dark at room temperature (22-25° C.) for 1 hr. Unreacted dye was quenched using 5 mM DTT and removed using the manufacturer-provided buffer exchange column. […] Samples were loaded into standard glass capillaries (Monolith NT.155 Capillaries) and analyzed by MST using a Monolith NT.115 Blue/Red, LED power and IR laser power of 80%. Fraction bound and error was generated by NanoTemper software (MO.Affinity Analysis), and KD values were determined using GraphPad Prism nonlinear fit four-parameter agonist versus response with restraints for 0 and 1 fraction bound.
With this known, the EO docking poses were reevaluated, and the top pose featuring an ionic interaction between the EO-carboxylate and sidechain of R145 was analyzed (FIGS. 2E, 2F, and 2G). […]

T1 sequence (Q07812 whole entry S4C/C62S/C126S/R134E/R145E): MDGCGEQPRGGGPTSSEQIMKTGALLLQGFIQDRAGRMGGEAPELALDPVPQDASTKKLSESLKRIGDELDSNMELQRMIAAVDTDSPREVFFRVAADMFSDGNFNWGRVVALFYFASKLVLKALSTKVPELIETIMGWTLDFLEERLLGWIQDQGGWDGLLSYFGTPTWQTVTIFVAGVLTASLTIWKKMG

With `CC1=NN(c2ccc(C)c(C)c2)C(=O)/C1=N\Nc1cccc(-c2cccc(C(=O)O)c2)c1O` [EO, eltrombopag] the “affinity as determined by MST” value was “markedly reduced affinity”.
